From patent publication US20180353507A1, “METHODS OF PREVENTING OR TREATING HYPOGLYCEMIA BY ADMINISTERING A GPR119 AGONIST” (Merck Sharp & Dohme Corp., priority 2015, published 2018)

Experiments:
[1] = tested on: male Wistar Han rats; assay: Hyperinsulinemic-hypoglycemia clamp study; assay type: in vivo; conditions: for change of systemic blood glucose level during clamp / glucose infusion rate needed to maintain blood glucose at 50 mg/dl: 60 minutes prior to clamp; for change of systemic blood glucose level during clamp: FIG. 6A; for glucose infusion rate needed to maintain blood glucose at 50 mg/dl: FIG. 6B; for systemic epinephrine release at hypoglycemic status: FIG. 7C; for c-peptide release: FIG. 7D
Procedure: FIG. 5 illustrates a scheme and time-course depiction of the hyperinsulinemic-hypoglycemia clamp study performed in rats as described in EXAMPLE 4. Rats were recovered from surgery stress and pre-treated with vehicle, GLIBENCLAMIDE (5 mpk), or GPR119 agonist Compound B (10 mpk) 60 minutes prior to initiation of the clamp. From time zero, rats received an insulin bolus injection initially, then were simultaneously infused with insulin at a steady rate and glucose at an adjusted rate based on the plasma glucose level measured at every 10 minutes. Vertical bars indicate the time points when the blood specimens were collected for measurements of insulin, C-peptide, glucagon, and epinephrine/norepinephrine (0 min, 30 min, 60 min, 90 min and 120 min).
A hyperinsulinemic-hypoglycemia clamp study was performed in male Wistar Han rats as shown in FIG. 5 and described below to explore the potential roles of GPR119 agonists in regulating glucagon secretion at the hypoglycemic status. Three groups were studied, those treated with: (1) vehicle, (2) GPR119 agonist, Compound B, C, F, H, I, M and V (see Table 1 and Table 2), at 10, 30, 100, 100, 100, 30 and 30 mpk, respectively, or (3) GLIBENCLAMIDE, a sulfonylurea insulin secretagogue known to cause hypoglycemia, at 5 mpk. Blood samples (100-150 μl) were collected for insulin, C-peptide, glucagon, and epinephrine/norepinephrine measurements. Terminal bleeding was analyzed for PK measurement.
FIGS. 5, 6A-B, 7A-D and 8A-L illustrate the hyperinsulinemic-hypoglycemia clamp study of EXAMPLE 4. FIG. 5 is a scheme and time-course depiction of the hyperinsulinemic-hypoglycemia clamp study performed in rats. Vertical bars indicate the time points when the rats were infused with compound, or insulin/glucose, or blood specimens were collected for measurements of insulin, C-peptide, glucagon, and epinephrine/norepinephrine. After recovered from surgery stress, rats were pre-treated with vehicle, GLIBENCLAMIDE (5 mpk), or GPR119 agonist Compound B (10 mpk) 60 minutes prior to initiation of the clamp. From time zero, rats received an initial insulin bolus injection followed by simultaneous infusion of insulin at a steady rate and glucose at an adjusted rate. Rat plasma glucose levels (FIG. 6A) were monitored periodically, and the glucose infusion rate (FIG. 6B) was adjusted so that the blood glucose level would be maintained at 50 mg/dl.

[2] = tested on: pancreas; assay: In situ rat pancreatic perfusion, insulin and glucagon release; design: species or system Wistar Han rats; conditions: 500 nM compound, vs vehicle
Procedure: Male Wistar Han rats were purchased from Charles River Laboratories Inc. at 6 weeks of age and housed 2 per cage for two weeks with food and water ad libitum. In Situ Pancreatic perfusions were performed when the rats were eight weeks old. All procedures were performed in accordance with relevant guidelines and regulations. Food was removed 4-5 hours prior to surgery. For each surgery, the rat was fully sedated with 100 mg/kg intraperitoneal (i.p.) Na-pentobarbital (NEMBUTAL) anesthesia. The depth of anesthesia was determined by a “paw pinch” test. Surgery was not initiated until the rat was fully sedated. If necessary an additional 50 mg/kg i.p. dose (50% of original) of NEMBUTAL was given. The peritoneal cavity was opened and coeliac artery was ligated dorsally. […] cannula was inserted into coeliac artery for perfusant afflux. The left gastric artery was ligated at the esophagus-stomach junction. The hepatic portal vein was ligated dorsally and cannulated ventrally (25G cannula; towards liver) for perfusant efflux. Immediately following the surgery, the rat was placed into the perfusion chamber and perfused at 3 ml/minute with modified KREBS-RINGER buffers [see. […] et al. 2012 Reproductive biology and endocrinology 10:110]. The buffers and perfusion chamber were kept warm at 37° C. and saturated with an O^2/CO^2 gases mixture. The buffers were 2 mM or 16 mM glucose and contained either vehicle (0.1%/DMSO) or Compound A (see Table 1) or 30 mM L-Arginine. The perfusant was collected by automated fraction collector at one sample per minute rate with about 90% rate of buffer recovery. Samples were frozen at -70° C. and later analyzed for total insulin and glucagon content. For the buffers: First the following mixture was prepared in water containing 10% NaCl (1.19M), 5% KCL (94 mM), 10% […] (250 mM), 5% CaCl2-2H2O (50 mM), 5% MgSO4-7H2O (24 mM), and 5% KH2PO4 (24 mM). The buffer was then oxygenated for 20 minutes, and 3% dextran and 0.2% BSA (insulin free) were added. Glucose was added from 1M stock solution as needed. FIGS. 4A-B illustrate a pancreatic perfusion assay in Wistar Han rats, and insulin (left panel) and glucagon (right panel) release measurements. As shown (lines with open circles), a basal level of insulin and a fair amount of glucagon were secreted from pancreas when perfused with low glucose (6 mM glucose). […] Application of GPR119 agonist (500 nM Compound A, lines with solid circles) enhanced both basal and glucose-stimulated pancreas insulin secretion (left panel).

[3] = 100 mpk, hypoglycemic status (50 mg/dL), FIGS. 8A-L
[4] = 30 mpk, hypoglycemic status (50 mg/dL), FIGS. 8A-L
[5] = high glucose (12 mM glucose) perfusion
[6] = low glucose (6 mM glucose) perfusion

COc1ccc(Cl)cc1C(=O)NCCc1ccc(S(=O)(=O)NC(=O)NC2CCCCC2)cc1 [GLIBENCLAMIDE, glibenclamide, reference compound]
change of systemic blood glucose level during clamp ([1]; 5 mpk): rapidly decreases blood glucose level | glucose infusion rate needed to maintain blood glucose at 50 mg/dl ([1]; 5 mpk): requires much faster glucose infusion rate | systemic epinephrine release at hypoglycemic status ([1]; 5 mpk): inhibited this elevation | c-peptide release ([1]; 5 mpk): promotes c-peptide release | blood glucagon secretion at hypoglycemic status ([1]; 5 mpk, blood glucose dropping to 50 mg/dL, 15-60 minutes, FIGS. 7A-B): suppressed glucagon secretion

CCc1cnc(N2CCC(c3nc(COc4ccc(-n5cnnn5)cc4)cs3)CC2)nc1 [Compound H]
blood glucagon secretion at hypoglycemic status [1, 3]: significantly elevated

COCc1noc(N2CCC([C@H]3C[C@H]3CCOc3ccc(S(C)(=O)=O)c(F)c3)CC2)n1 [Compound M]
blood glucagon secretion at hypoglycemic status [1, 4]: significantly elevated

CS(=O)(=O)c1ccc(OCC[C@@H]2C[C@@H]2C2CCN(c3ncc(Cl)cn3)CC2)nc1 [Compound C]
blood glucagon secretion at hypoglycemic status [1, 4]: significantly elevated

CCc1noc(N2CCC([C@H]3C[C@H]3CCOc3ccc(S(C)(=O)=O)cn3)CC2)n1 [Compound V]
blood glucagon secretion at hypoglycemic status [1, 4]: significantly elevated

COc1c(Nc2ccc(S(C)(=O)=O)nc2C)ncnc1OC1CCN(C(=O)OC(C)C)CC1 [Compound F]
blood glucagon secretion at hypoglycemic status [1, 3]: significantly elevated

C[S+]([O-])c1ccc(OCCCC2CCN(C(=O)OC(C)(C)C)CC2)cc1F (centres unmarked) [Compound I]
blood glucagon secretion at hypoglycemic status [1, 3]: significantly elevated

CC1(OC(=O)C2CC3COCC(C2)C3Oc2ncnc(Nc3ccc(C#N)cc3Cl)c2F)CC1 (centres unmarked) [Compound A]
glucose-repressed glucagon secretion from pancreas [2, 5]: did not affect | glucose-stimulated pancreas insulin secretion [2, 5]: enhanced | basal glucagon release from pancreas [2, 6]: elevated basal glucagon release | basal pancreas insulin secretion [2, 6]: enhanced

COCc1cnc(N2CCC([C@H]3C[C@H]3CCOc3cc(F)c(CC(=O)N4CCC4)c(F)c3)CC2)nc1 [Compound B]
change of systemic blood glucose level during clamp ([1]; 10 mpk, compared with vehicle): comparable and slower | glucose infusion rate needed to maintain blood glucose at 50 mg/dl ([1]; 10 mpk, compared with vehicle): comparable and slower | systemic epinephrine release at hypoglycemic status ([1]; 10 mpk): only slightly altered | c-peptide release ([1]; 10 mpk): indistinguishable from vehicle control | blood glucagon secretion at hypoglycemic status ([1]; 10 mpk, blood glucose dropping to 50 mg/dL, 15-60 minutes, FIGS. 7A-B): significantly elevated
